Test results taken from patent US20140228349A1, “5,7-SUBSTITUTED-IMIDAZO[1,2-C]PYRIMIDINES” (Array BioPharma Inc., priority 2011, published 2014).
pIC50: −log10 of the molar value.

Assays:
Format in all cases: biochemical
Human Tyk2 kinase domain = target: T1, Human Tyk2 kinase domain (Homo sapiens, UniProt P29597); assay: Tyk2 Inhibition Assay (Omnia kinase fluorescence peptide substrate); conditions: averaged IC50 ranges; 10 μM (Km app) or 1 mM ATP, 2 nM Tyk2
T1 construct: comprising amino acids 886 to 1187; His10 (10 histidine residues) (C, cleaved yes); made in house
T1 sequence (P29597 886-1187): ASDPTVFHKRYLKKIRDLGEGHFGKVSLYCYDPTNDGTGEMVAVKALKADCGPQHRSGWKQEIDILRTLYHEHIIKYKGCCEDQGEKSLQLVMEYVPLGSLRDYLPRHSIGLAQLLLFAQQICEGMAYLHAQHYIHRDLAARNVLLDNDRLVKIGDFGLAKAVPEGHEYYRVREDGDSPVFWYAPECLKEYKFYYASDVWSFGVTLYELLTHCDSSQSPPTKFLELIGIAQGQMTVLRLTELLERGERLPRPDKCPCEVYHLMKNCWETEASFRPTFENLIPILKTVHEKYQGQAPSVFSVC
Summary of the method: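 Phosphorylation of 8 μM Omnia Y12 peptide followed kinetically by Sox fluorescence, ex 360/em 485 nm, every 50 s for 45 min. Enzyme: 2 nM Tyk2 kinase domain (aa 886–1187, His tag removed); ATP at 10 μM (Km app) or 1 mM; buffer HEPES pH 7.4 with MgCl2, Triton X-100, DTT. 10-point curves up to 10 μM, IC50 from 4-parameter logistic fit.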

[1] = test system: Tyk2, JAK1, JAK2 and JAK3; assay: in vitro assays (Examples A, B, C and D) taken together; conditions: Reference Examples; statement in words
From the text: The assays described in Examples A, B, C and D for the determination of Tyk2, JAK1, JAK2 and JAK3 kinase activity, respectively, utilized the Omnia® Kinase fluorescence peptide substrate-based technology (Invitrogen). The specific components of the assay mixture are described in Examples A, B, C and D. In these assays, Mg^2+ is chelated upon phosphorylation of the Omnia peptide by the kinase to form a bridge between the chelation-enhanced fluorophore Sox and the phosphate, resulting in an increase in fluorescence emission at 485 nm when excited at […]. The reactions were therefore read at excitation 360 nm and emission was measured at 485 nm every 50 seconds for 45 minutes using a PerkinElmer EnVision Multilabel Plate Reader.
The final buffer conditions for Tyk2, JAK1, JAK2, and JAK3 assays were as follows: 25 mM HEPES, pH 7.4, 10 mM MgCl2, 0.01% Triton X-100 and 1 mM DTT.
Compounds were prepared at 50× the final concentration in DMSO by conducting 3-fold serial dilutions from a 500-μM intermediate dilution to give a 10-point dosing curve having a high dose of 10 μM. Two-μL aliquots of these were transferred to a fresh plate for a ten-fold intermediate dilution with assay buffer. Five-μL aliquots of the diluted compounds were then transferred to 20-μL of assay mixtures described in Examples A, B, C and D for a final concentration of DMSO of 2%. A standard or reference compound was typically included on each assay plate to validate that plate. For each plate, percent of control (POC) values were calculated for each well according to the following equation: […]
Compounds of Formula I were screened for their ability to inhibit Tyk2 using the general enzyme inhibition assay method, in which the assay mixture contained 10 μM (Km app) or 1 mM ATP, 8 μM Omnia® Y12 peptide (Catalog #IVGN KPZ3121C; Invitrogen Corporation, Carlsbad, Calif.) and 2 nM Tyk2 in a total volume of 20 μL. Human Tyk2 kinase domain, comprising amino acids 886 to 1187 with 10 additional histidine residues (histidine tag) on the carboxy terminus, was expressed and purified from bacculovirus in-house at Array BioPharma Inc. (Boulder, Colo.). The histidine tag was cleaved after purification using standard conditions.
Compounds of Formula I were screened for their ability to inhibit JAK1 using the general enzyme inhibition assay method, in which the assay mixture contained 40 μM (Km app) or 1 mM ATP, 8 μM Omnia® Y12 peptide (Catalog #IVGN KPZ3121C; Invitrogen Corporation, Carlsbad, Calif.) and 15 nM JAK1 in a total volume of 20 μL. JAK1 was purchased from Invitrogen Corporation, Carlsbad, Calif. (catalog #IVGN PV4775).
(§1) Compounds of Formula I were screened for their ability to inhibit JAK2 using the general enzyme inhibition assay method, in which the assay mixture contained 25 μM (Km app) or 1 mM ATP, 10 μM Omnia® Y7 peptide (Catalog #IVGN KNZ3071C, Invitrogen Corporation, Carlsbad, Calif.) and 5 nM JAK2 in a total volume of 20 μL. JAK2 was purchased from Invitrogen Corporation, Carlsbad, Calif. (catalog #IVGN PV4288).
as §1, with “JAK3” for “JAK2”, “10” for “25”, “2.5” for “5”, “PV4080).” for “PV4288).”

JAK2 = target: T2, JAK2 (Homo sapiens, UniProt O60674); assay: JAK2 Inhibition Assay (Omnia kinase fluorescence peptide substrate); conditions: averaged IC50 ranges; 25 μM (Km app) or 1 mM ATP, 5 nM JAK2
T2 construct: purchased Invitrogen Corporation, Carlsbad, Calif; IVGN PV4288
T2 sequence (O60674 whole entry): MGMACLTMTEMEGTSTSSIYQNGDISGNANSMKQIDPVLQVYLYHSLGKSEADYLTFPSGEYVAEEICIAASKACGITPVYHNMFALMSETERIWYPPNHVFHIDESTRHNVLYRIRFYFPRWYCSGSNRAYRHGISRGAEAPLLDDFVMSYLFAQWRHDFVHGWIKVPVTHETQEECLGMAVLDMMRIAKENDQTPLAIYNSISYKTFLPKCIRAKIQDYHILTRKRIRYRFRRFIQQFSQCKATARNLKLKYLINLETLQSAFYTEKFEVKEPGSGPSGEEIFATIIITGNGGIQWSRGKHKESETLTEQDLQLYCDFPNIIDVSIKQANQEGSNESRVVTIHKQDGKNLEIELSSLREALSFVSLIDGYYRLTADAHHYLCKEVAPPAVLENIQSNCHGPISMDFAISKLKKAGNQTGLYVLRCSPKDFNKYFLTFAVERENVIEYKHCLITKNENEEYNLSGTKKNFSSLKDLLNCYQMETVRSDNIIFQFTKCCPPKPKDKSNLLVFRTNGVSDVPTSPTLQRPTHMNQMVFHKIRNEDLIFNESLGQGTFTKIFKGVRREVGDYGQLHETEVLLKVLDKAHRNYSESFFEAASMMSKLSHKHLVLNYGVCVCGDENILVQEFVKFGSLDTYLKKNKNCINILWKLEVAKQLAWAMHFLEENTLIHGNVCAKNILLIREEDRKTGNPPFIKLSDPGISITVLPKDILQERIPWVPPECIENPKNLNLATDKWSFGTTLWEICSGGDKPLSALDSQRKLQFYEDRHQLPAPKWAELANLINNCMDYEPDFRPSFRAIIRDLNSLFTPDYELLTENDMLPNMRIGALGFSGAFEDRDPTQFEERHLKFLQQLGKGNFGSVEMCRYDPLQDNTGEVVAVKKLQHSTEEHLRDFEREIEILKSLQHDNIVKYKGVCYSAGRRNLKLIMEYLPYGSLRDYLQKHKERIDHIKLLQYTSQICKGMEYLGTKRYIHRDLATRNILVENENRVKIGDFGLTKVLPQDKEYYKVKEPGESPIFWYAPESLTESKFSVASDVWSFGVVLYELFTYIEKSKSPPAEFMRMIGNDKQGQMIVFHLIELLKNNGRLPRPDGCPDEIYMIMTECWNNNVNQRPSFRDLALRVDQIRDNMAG

JAK3 = target: T3, JAK3 (Homo sapiens, UniProt P52333); assay: JAK3 Inhibition Assay (Omnia kinase fluorescence peptide substrate); conditions: averaged IC50 ranges; 10 μM (Km app) or 1 mM ATP, 2.5 nM JAK3
T3 construct: purchased Invitrogen Corporation, Carlsbad, Calif; IVGN PV4080
T3 sequence (P52333 1-1124): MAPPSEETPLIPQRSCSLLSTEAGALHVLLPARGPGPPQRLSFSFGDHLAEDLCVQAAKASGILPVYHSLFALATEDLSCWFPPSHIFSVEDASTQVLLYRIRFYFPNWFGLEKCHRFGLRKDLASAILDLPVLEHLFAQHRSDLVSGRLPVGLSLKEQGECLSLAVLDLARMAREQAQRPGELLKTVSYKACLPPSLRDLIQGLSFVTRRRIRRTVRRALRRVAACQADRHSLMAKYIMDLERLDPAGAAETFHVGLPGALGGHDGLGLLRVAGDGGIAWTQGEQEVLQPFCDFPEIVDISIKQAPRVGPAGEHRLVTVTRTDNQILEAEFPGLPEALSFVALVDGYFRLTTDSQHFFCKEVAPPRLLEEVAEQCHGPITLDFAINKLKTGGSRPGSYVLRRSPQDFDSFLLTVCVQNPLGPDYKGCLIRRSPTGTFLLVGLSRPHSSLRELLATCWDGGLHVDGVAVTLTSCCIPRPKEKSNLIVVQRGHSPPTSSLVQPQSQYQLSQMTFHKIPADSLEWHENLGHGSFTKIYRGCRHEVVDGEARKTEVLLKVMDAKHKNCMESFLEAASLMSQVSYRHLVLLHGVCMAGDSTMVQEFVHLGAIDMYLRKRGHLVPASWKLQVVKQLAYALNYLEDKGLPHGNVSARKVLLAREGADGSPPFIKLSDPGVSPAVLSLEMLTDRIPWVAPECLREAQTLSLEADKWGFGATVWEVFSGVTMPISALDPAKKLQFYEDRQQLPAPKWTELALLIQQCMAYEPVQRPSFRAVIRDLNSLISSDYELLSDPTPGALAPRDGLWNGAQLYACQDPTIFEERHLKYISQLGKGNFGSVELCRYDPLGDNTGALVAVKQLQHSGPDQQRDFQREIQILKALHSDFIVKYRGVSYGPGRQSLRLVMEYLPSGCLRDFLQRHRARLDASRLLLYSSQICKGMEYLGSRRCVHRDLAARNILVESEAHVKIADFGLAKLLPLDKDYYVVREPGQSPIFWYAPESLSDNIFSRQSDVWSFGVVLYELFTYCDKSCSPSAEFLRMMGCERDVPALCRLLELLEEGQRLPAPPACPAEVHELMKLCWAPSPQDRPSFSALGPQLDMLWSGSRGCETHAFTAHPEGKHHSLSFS
Summary of the method: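 IC50 is the concentration giving 50 percent of control on a 4-parameter logistic fit of 10-point, 3-fold dilutions from a 10 μM top dose, at 2% final DMSO. Kinetic Sox fluorescence (360/485 nm) was monitored every 50 s for 45 min. Mix: JAK3 2.5 nM, Omnia Y7 peptide 10 μM, ATP 10 μM (Km app) or 1 mM, in HEPES pH 7.4 buffer with MgCl2, Triton X-100 and DTT.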

JAK1 = target: T4, JAK1 (Homo sapiens, UniProt P23458); assay: JAK1 Inhibition Assay (Omnia kinase fluorescence peptide substrate); conditions: averaged IC50 ranges; 40 μM (Km app) or 1 mM ATP, 15 nM JAK1
T4 construct: purchased Invitrogen Corporation, Carlsbad, Calif; IVGN PV4775
T4 sequence (P23458 whole entry): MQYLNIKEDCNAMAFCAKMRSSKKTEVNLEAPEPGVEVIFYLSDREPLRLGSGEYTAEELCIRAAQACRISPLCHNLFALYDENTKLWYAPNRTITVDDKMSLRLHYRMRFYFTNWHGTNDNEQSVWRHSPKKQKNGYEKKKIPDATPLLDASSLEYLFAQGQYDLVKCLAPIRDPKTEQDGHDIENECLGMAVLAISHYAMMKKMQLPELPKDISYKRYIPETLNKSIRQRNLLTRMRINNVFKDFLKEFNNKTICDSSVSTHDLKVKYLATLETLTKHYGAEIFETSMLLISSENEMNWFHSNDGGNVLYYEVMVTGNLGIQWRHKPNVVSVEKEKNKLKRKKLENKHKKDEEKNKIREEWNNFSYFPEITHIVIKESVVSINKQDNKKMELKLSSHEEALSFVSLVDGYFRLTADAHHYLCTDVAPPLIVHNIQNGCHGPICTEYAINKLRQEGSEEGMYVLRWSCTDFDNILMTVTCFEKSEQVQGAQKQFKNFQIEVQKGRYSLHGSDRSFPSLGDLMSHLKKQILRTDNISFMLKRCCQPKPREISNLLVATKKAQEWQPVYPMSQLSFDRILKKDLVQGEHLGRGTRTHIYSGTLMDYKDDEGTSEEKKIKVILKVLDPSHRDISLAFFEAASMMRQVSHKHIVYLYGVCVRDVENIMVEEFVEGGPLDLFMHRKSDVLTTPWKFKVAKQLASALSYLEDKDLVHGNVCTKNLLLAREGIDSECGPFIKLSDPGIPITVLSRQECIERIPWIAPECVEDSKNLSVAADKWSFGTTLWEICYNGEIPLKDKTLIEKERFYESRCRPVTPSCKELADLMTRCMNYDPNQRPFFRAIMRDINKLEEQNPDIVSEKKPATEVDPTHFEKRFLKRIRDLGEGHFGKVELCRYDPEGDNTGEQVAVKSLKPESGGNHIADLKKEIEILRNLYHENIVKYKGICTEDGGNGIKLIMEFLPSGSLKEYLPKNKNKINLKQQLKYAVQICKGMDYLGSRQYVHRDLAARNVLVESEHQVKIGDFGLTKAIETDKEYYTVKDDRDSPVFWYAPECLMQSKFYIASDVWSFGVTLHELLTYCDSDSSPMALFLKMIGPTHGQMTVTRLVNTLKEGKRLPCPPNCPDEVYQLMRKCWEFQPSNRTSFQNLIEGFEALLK
Summary of the method: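 15 nM JAK1, 8 μM Omnia Y12 peptide, 40 μM (Km app) or 1 mM ATP; 25 mM HEPES pH 7.4, 10 mM MgCl2, 2% DMSO. Fluorescence (ex 360/em 485 nm) read every 50 s over 45 min. IC50 by 4-parameter fit of percent of control, top dose 10 μM.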

pIC50 (Human Tyk2 kinase domain)	pIC50 (JAK2)	pIC50 (JAK3)	pIC50 (JAK1)	SMILES	activity in the in vitro assays [1]
< 6.00	< 6.00	< 6.00	< 6.00	COCCC(C1CCOC1)n1cc(-c2nc(-c3cnn(C)c3)cc3nccn23)cn1 (stereo not drawn) [Example 75, 5-(1-(3-methoxy-1-(tetrahydrofuran-3-yl)propyl)-1H-pyrazol-4-yl)-7-(1-methyl-1H-pyrazol-4-yl)imidazo[1,2-c]pyrimidine]	weakly active
< 6.00	< 6.00	< 6.00	< 6.00	CCN1CC(CCF)(n2cc(-c3nc(-c4cnn(C)c4)cc4nccn34)cn2)C1 [Example 84, 5-(1-(1-ethyl-3-(2-fluoroethyl)azetidin-3-yl)-1H-pyrazol-4-yl)-7-(1-methyl-1H-pyrazol-4-yl)imidazo[1,2-c]pyrimidine]	weakly active
< 6.00	< 6.00	< 6.00	< 6.00	CCNC(=O)N1CC(CCF)(n2cc(-c3nc(-c4cnn(C)c4)cc4nccn34)cn2)C1 [Example 92, N-ethyl-3-(2-fluoroethyl)-3-(4-(7-(1-methyl-1H-pyrazol-4-yl)imidazo[1,2-c]pyrimidin-5-yl)-1H-pyrazol-1-yl)azetidine-1-carboxamide]	weakly active
< 6.00	< 6.00	< 6.00	< 6.00	CN(C)C(=O)N1CC(CCF)(n2cc(-c3nc(-c4cnn(C)c4)cc4nccn34)cn2)C1 [Example 93, 3-(2-fluoroethyl)-N,N-dimethyl-3-(4-(7-(1-methyl-1H-pyrazol-4-yl)imidazo[1,2-c]pyrimidin-5-yl)-1H-pyrazol-1-yl)azetidine-1-carboxamide]	weakly active
< 6.00	< 6.00	< 6.00	< 6.00	Cn1cc(-c2cc3nccn3c(-c3cnn(C4(CCF)CN(C(=O)C5CC5)C4)c3)n2)cn1 [Example 97, cyclopropyl(3-(2-fluoroethyl)-3-(4-(7-(1-methyl-1H-pyrazol-4-yl)imidazo[1,2-c]pyrimidin-5-yl)-1H-pyrazol-1-yl)azetidin-1-yl)methanone]	weakly active
< 6.00	< 6.00	< 6.00	< 6.00	COCCC1(n2cc(-c3nc(-c4cnn(C)c4)cc4nccn34)cn2)CN(C(=O)N(C)C)C1 [Example 99, 3-(2-methoxyethyl)-N,N-dimethyl-3-(4-(7-(1-methyl-1H-pyrazol-4-yl)imidazo[1,2-c]pyrimidin-5-yl)-1H-pyrazol-1-yl)azetidine-1-carboxamide]	weakly active
